Data from BindingDB's records for doi:10.1038/sj.bjp.0702201 (Smithkline Beecham Pharmaceuticals, 1998).

Assays:
D(3) dopamine receptor = D(3) dopamine receptor (Homo sapiens, UniProt P35462)
[1] = target: 5-hydroxytryptamine receptor 2A (Homo sapiens, UniProt P28223)
[2] = target: 5-hydroxytryptamine receptor 6 (Homo sapiens, UniProt P50406)
[3] = target: 5-hydroxytryptamine receptor 1B (Homo sapiens, UniProt P28222)
[4] = target: 5-hydroxytryptamine receptor 2B (Homo sapiens, UniProt P41595)
[5] = target: 5-hydroxytryptamine receptor 7 (Homo sapiens, UniProt P34969)
[6] = target: 5-hydroxytryptamine receptor 1E (Homo sapiens, UniProt P28566)
[7] = target: Muscarinic acetylcholine receptor M3 (Homo sapiens, UniProt P20309)
D(2) dopamine receptor = D(2) dopamine receptor (Homo sapiens, UniProt P14416)
[8] = target: T1, Alpha-1B adrenergic receptor (Homo sapiens, UniProt P35368)
T1 sequence (P35368 whole entry): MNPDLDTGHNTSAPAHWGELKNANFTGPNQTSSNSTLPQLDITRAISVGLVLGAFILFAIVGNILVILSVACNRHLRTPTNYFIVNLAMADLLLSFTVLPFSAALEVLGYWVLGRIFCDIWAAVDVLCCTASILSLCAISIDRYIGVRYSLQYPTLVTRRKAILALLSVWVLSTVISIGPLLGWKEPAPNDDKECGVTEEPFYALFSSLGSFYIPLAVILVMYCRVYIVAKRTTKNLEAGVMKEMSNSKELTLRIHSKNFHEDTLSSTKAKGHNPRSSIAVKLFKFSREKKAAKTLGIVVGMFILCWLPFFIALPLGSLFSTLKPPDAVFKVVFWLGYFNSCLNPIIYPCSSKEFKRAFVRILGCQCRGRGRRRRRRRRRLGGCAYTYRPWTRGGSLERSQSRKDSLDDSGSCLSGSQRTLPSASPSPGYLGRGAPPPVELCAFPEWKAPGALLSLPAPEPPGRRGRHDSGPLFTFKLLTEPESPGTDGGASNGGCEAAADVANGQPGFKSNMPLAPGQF

[9] = target: T2, 5-hydroxytryptamine receptor 1F (Homo sapiens, UniProt P30939)
T2 sequence (P30939 whole entry): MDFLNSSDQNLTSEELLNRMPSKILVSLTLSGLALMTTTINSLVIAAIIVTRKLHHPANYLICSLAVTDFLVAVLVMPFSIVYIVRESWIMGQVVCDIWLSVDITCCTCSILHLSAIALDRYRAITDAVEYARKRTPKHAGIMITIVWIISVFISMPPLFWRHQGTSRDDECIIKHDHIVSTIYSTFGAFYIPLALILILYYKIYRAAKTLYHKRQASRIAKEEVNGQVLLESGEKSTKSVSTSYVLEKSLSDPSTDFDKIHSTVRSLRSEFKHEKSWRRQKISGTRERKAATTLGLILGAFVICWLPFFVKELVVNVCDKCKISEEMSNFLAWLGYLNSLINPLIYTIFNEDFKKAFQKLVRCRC

[10] = target: 5-hydroxytryptamine receptor 4 (Sus scrofa, UniProt Q29006)
[11] = target: T3, 5-hydroxytryptamine receptor 2C (Homo sapiens, UniProt P28335)
T3 sequence (P28335 whole entry): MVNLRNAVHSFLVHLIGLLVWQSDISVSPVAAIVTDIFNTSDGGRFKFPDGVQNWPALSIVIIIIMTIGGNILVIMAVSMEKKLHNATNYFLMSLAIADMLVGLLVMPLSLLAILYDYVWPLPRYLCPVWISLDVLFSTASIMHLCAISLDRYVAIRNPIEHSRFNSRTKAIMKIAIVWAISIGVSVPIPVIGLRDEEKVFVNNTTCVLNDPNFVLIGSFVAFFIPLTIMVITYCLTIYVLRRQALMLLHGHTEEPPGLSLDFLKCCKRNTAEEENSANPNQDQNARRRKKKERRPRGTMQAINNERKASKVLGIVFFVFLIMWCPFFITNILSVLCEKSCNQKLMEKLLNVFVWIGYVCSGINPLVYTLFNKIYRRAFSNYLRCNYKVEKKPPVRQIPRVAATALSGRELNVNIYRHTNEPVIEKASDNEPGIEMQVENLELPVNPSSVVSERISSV

5-hydroxytryptamine receptor 1B, sequence (P28222 whole entry): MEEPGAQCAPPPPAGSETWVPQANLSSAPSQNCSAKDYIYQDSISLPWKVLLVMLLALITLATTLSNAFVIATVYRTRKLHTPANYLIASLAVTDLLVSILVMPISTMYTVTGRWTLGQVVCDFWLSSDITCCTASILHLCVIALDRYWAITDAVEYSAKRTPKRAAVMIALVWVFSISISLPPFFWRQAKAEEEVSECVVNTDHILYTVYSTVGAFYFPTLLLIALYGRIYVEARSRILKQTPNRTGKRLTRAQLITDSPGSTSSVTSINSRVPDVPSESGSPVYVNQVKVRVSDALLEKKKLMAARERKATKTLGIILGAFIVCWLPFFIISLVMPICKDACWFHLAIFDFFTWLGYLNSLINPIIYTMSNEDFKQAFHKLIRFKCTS
Muscarinic acetylcholine receptor M3, sequence (P20309 whole entry): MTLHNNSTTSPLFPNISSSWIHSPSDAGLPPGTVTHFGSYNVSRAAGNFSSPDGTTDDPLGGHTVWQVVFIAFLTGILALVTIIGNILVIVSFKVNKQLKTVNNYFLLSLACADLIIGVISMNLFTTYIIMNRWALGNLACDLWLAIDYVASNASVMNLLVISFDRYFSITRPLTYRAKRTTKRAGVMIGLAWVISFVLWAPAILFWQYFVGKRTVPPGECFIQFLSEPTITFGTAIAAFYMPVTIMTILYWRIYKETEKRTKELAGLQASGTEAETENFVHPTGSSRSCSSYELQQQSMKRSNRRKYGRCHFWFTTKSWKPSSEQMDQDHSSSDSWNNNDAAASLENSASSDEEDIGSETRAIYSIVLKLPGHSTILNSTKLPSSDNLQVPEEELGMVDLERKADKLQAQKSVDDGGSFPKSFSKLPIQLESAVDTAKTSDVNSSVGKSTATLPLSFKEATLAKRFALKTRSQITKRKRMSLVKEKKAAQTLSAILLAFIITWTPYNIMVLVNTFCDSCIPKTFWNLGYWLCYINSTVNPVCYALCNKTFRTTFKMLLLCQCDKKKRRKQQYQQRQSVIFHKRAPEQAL
5-hydroxytryptamine receptor 1E, sequence (P28566 whole entry): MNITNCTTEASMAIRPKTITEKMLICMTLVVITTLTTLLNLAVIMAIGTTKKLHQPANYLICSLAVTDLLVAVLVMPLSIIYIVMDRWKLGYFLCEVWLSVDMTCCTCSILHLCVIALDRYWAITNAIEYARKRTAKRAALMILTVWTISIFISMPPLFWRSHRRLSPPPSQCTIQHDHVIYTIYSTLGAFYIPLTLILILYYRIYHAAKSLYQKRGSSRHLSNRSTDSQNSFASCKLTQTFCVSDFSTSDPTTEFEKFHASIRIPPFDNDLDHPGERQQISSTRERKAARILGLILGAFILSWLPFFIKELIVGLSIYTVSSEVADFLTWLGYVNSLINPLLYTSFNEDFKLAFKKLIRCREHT
D(3) dopamine receptor, sequence (P35462 as listed by the source): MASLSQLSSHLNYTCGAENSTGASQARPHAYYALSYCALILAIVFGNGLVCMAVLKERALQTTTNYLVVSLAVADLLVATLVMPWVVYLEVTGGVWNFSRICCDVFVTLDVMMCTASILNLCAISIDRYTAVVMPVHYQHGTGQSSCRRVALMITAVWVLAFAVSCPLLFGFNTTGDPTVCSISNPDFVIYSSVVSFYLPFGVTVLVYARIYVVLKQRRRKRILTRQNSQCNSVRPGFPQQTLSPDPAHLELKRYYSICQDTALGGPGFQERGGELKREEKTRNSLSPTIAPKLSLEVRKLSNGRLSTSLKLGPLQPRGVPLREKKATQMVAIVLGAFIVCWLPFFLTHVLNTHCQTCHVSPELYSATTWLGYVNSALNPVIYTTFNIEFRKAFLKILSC
D(2) dopamine receptor, sequence (P14416 whole entry): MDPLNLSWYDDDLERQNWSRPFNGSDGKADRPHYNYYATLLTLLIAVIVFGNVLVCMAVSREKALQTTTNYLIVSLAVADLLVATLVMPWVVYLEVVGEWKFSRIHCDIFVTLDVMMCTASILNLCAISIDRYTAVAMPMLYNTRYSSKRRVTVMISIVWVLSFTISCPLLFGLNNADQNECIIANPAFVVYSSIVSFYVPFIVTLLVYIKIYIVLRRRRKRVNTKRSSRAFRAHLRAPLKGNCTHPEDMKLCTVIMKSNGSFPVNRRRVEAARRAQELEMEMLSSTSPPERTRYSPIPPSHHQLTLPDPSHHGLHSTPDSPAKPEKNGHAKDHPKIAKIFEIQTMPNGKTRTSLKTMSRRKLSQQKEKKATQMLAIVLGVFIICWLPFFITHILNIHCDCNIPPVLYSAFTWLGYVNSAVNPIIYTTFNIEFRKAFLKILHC
5-hydroxytryptamine receptor 4, sequence (Q29006 whole entry): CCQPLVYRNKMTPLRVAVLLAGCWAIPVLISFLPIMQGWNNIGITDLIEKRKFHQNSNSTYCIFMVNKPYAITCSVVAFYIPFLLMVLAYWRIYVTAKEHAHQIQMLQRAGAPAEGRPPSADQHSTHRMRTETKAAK
5-hydroxytryptamine receptor 7, sequence (P34969 whole entry): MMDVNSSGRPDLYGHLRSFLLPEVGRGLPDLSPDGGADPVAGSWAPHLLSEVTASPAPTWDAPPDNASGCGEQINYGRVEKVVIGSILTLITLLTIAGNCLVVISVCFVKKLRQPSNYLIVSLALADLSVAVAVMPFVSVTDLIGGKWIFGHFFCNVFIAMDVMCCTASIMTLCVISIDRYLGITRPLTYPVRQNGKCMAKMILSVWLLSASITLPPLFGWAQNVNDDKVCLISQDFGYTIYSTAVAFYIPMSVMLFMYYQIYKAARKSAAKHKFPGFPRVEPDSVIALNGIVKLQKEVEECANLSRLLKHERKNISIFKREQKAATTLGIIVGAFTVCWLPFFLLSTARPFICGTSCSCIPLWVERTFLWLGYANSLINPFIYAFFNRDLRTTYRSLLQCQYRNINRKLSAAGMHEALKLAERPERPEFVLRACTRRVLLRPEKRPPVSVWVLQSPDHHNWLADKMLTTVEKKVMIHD
5-hydroxytryptamine receptor 6, sequence (P50406 whole entry): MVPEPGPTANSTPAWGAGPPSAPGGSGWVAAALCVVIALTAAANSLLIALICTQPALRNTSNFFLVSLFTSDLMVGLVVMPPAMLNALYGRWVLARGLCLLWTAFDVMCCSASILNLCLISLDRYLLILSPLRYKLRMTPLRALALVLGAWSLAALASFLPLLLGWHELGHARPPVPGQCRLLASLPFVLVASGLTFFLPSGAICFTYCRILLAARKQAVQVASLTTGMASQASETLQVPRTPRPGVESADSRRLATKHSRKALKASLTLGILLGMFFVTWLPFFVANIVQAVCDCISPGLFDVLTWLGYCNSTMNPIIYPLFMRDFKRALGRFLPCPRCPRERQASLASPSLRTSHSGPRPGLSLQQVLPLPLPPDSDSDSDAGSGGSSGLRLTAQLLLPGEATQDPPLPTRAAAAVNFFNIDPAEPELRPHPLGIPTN
5-hydroxytryptamine receptor 2A, sequence (P28223 whole entry): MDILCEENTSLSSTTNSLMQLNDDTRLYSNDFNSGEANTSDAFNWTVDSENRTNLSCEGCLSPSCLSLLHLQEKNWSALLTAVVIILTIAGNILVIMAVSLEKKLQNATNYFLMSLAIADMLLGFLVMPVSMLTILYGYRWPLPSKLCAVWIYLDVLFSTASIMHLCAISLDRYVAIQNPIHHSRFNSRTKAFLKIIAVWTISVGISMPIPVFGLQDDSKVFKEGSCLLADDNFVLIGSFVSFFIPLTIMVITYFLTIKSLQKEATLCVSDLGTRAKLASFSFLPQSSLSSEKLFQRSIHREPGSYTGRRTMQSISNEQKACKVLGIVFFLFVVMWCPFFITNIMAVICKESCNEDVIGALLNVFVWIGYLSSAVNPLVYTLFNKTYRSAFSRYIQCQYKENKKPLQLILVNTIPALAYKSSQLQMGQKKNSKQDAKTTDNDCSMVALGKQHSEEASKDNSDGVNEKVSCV
5-hydroxytryptamine receptor 2B, sequence (P41595 whole entry): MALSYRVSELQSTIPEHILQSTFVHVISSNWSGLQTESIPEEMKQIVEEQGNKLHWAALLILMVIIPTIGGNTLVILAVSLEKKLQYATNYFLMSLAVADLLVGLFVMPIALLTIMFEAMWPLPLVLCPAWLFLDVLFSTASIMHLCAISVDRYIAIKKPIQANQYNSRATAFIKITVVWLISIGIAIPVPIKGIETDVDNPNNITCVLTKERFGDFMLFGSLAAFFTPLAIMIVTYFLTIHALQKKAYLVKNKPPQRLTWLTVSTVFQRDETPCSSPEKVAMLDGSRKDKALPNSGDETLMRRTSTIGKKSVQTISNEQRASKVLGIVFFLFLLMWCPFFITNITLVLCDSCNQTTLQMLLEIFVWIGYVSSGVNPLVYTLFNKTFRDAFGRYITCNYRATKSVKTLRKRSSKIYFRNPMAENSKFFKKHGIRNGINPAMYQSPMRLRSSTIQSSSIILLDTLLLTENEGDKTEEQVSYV

- Ki (D(3) dopamine receptor): 0.398 µM
- Ki [1]: 0.126 µM
- Ki [2]: 1.26 µM
- Ki [3]: 0.0501 µM
- Ki [4]: 0.0199 µM
- Ki [5]: 0.126 µM
- Ki [6]: 2.51 µM
- Ki [7]: 0.0398 µM
- Ki (D(2) dopamine receptor): 1 µM
- Ki [8]: 1.58 µM
- Ki [9]: 0.316 µM
- Ki [10]: 0.251 µM
- Ki [11]: 0.0398 µM
SMILES: CCCCCCOc1nsnc1C1=CCCN(C)C1
